According to ChEMBL document CHEMBL1641381, “Rapid access to new bioconjugates of betulonic acid via click chemistry” (2011):

Tests used:
Type in all cases: functional
Mus musculus [1] = experiment: Antiinflammatory activity against histamine-induced mouse edema model assessed as inflammation index 20 mg/kg, po (untreated control = 32.6+/-3.1%)
Mus musculus [2] = experiment: Antiinflammatory activity against histamine-induced mouse edema model assessed as edema size 20 mg/kg, po (untreated control = 100%)
Mus musculus [3] = experiment: Antiinflammatory activity against histamine-induced mouse edema model assessed as antiinflammatory effect 20 mg/kg, po (untreated control = 0%)
Mus musculus [4] = experiment: Antiinflammatory activity against histamine-induced mouse edema model assessed as inflammation index 50 mg/kg, po (untreated control = 32.6+/-3.1%)
Mus musculus [5] = experiment: Antiinflammatory activity against histamine-induced mouse edema model assessed as edema size 50 mg/kg, po (untreated control = 100%)
Mus musculus [6] = experiment: Antiinflammatory activity against histamine-induced mouse edema model assessed as antiinflammatory effect 50 mg/kg, po (untreated control = 0%)
Mus musculus [7] = experiment: Antioxidant activity agains CCl4-induced hepatitis mouse model assessed as TBARS level in serum at 20 mg/kg, po (untreated control = 100%)
Mus musculus [8] = experiment: Antioxidant activity agains CCl4-induced hepatitis mouse model at 20 mg/kg, po (untreated control = 0%)

Compound	Activity (Mus musculus [1]) [%]	level, % of control at 20 mg/kg (Mus musculus [2]) [%]	Activity (Mus musculus [3]) [%]	Activity (Mus musculus [4]) [%]	level, % of control at 50 mg/kg (Mus musculus [5]) [%]	Activity (Mus musculus [6]) [%]	Activity (Mus musculus [7]) [%]	Activity (Mus musculus [8]) [%]
COc1ccc2c(c1)c(CC(=O)O)c(C)n2C(=O)c1ccc(Cl)cc1 [INDOMETHACIN]	12.2	37.4	63	–	–	–	–	–
C=C(C)[C@@H]1CC[C@]2(C(=O)Nc3ccc(-c4cn(-c5ccc(OC)cc5)nn4)cc3)CC[C@]3(C)[C@H](CC[C@@H]4[C@@]5(C)CCC(=O)C(C)(C)[C@@H]5CC[C@]43C)[C@@H]12	25.6	78.5	21	25.4	77.9	22	41	59
C=C(C)[C@@H]1CC[C@]2(C(=O)Nc3ccc(-c4cn(CCCCCC)nn4)cc3)CC[C@]3(C)[C@H](CC[C@@H]4[C@@]5(C)CCC(=O)C(C)(C)[C@@H]5CC[C@]43C)[C@@H]12	29	89	11	28.4	87.1	13	66	34
C=C(C)[C@@H]1CC[C@]2(C(=O)Nc3ccc(-c4cn(-c5ccc(C(C)=O)cc5)nn4)cc3)CC[C@]3(C)[C@H](CC[C@@H]4[C@@]5(C)CCC(=O)C(C)(C)[C@@H]5CC[C@]43C)[C@@H]12	35.4	109	0	24.2	74.2	26	40	60
C=C(C)[C@@H]1CC[C@]2(C(=O)Nc3ccc(-c4cn(Cc5ccccc5)nn4)cc3)CC[C@]3(C)[C@H](CC[C@@H]4[C@@]5(C)CCC(=O)C(C)(C)[C@@H]5CC[C@]43C)[C@@H]12	34.1	105	0	25.6	78.5	21	58	42
O=C1c2c(O)cc(O)cc2O[C@H](c2ccc(O)c(O)c2)[C@H]1O [(+)-TAXIFOLIN]	–	–	–	–	–	–	57	43
